The text below walks through data of US9359399B2, “Synthetic peptide amides” (Cara Therapeutics, Inc., priority 2006, dated 2016).

The subject of experiment [1] is acetic acid-induced writhing in mice. In words: Acetic acid-induced writhing assay in mice. The note with it: mice. Format: in vivo, ICR mice. As to the method: 12: 525-562; Ramabadran and Bansinath (1986) Pharm. Res. 3: 263-270]. Intraperitoneal administration of dilute acetic acid solution causes a writhing behavior in mice. A writhe is defined as a contraction of the abdominal muscles accompanied by an extension of the forelimbs and elongation of the body. The number of writhes observed in the presence and absence of test compounds is counted to determine the analgesic activity of the compounds.
Each day a writhing assay was performed, a vehicle control group of mice (n=6-8) that were treated identically to the test group (except that test compound was omitted from the injection dose) was always included and the average total number of writhes in this group used as the absolute reference point defining 0% decrease in pain perception for all other mice receiving a test compound on that day. Specifically, the total number of writhes of each mouse receiving the test compound was converted to % decrease in pain perception according to the following equation:
[formula] Where Wv is the mean number of writhes in vehicle-treated group and Wc is the number of writhes in compound-treated mouse.
Male ICR mice, 23-37 grams in weight, were weighed and placed in individual observation chambers (usually a 4000 ml glass beaker) with a fine layer of SANI-CHIPS rodent bedding at the bottom. […] After administration of the compound or vehicle control, mice were returned to their individual observation chambers awaiting the intraperitoneal administration of acetic acid solution. […] and acetic acid injection, a dose corresponding to 10 ml/kg of a 0.6% (v/v) acetic acid solution was then injected into the right lower quadrant of the abdomen. Immediately after the injection, the mouse was returned to its observation chamber and the recording of the number of writhes begun immediately. The number of writhes was counted over a 15-min period starting from the time of acetic acid injection, the data being collected over three separate 5 minute time periods (0-5 min, 5-10 min, and 10-15 min).
The data were reported as ED50, and Hill coefficient. […] The Hill coefficient is expressed as the arithmetic mean±sem calculated from the values obtained from the animals.
For dose-response analysis, raw data were converted to % maximum possible effect (% MPE) using the formula: % MPE=((test score−vehicle-treated score)/(0−vehicle-treated score))*100. Raw data were analyzed using a one-way ANOVA followed by Dunnett's post-tests. […] Compounds were administered by the intravenous route.
For orientation: Writhing tests count abdominal constrictions after an irritant is injected.

The subject of experiment [2] is pancreatitis-induced abdominal hypersensitivity in rats. The experiment is described as follows: Rat pancreatitis model (dibutylin dichloride), abdominal hypersensitivity. Format: in vivo. The following applies: intraperitoneal route. As to the method:
Chronic pancreatic inflammation was induced in rats by intravenous administration of dibutylin dichloride (DBTC, Aldrich Milwaukee, Wis.) dissolved in 100% ethanol at a dose of 8 mg/kg under isofluorane anesthesia (2-3 liters/min, 4%/vol until anesthetized, then 2.5%/vol throughout the procedure. Control animals received the same volume of vehicle (100% ethanol) alone. Pancreatitis pain was assessed by determination of abdominal sensitivity to probing the abdomen of rats with a calibrated von Frey filament (4 g). Rats were allowed to acclimate in suspended wire-mesh cages for 30 min before testing. A response was indicated by the sharp withdrawal of the abdomen, licking of abdominal area, or whole body withdrawal. […] The mean occurrence of withdrawal events in each trial is expressed as the number of responses to 10 applications. Rats without inflammation of the pancreas typically display withdrawal frequencies to probing with von Frey filament of 0-1. The animals were allowed to recover for 6 days after DBTC administration prior to any pharmacological manipulations.
The number of positive responses, following abdominal probing (out of a possible 10), were recorded at each time point. […] Raw data were analyzed using a two-way repeated measures ANOVA followed by Bonferroni post-tests. […]

Experiment [3] has as its system pruritus induced by compound 48/80 in mice. The experiment is described as follows: Pruritus model in mice, compound 48/80-induced scratching. Format: in vivo, Swiss Webster mice. The following applies: inhibition of scratching. As to the method: (§1) Groups of 10 (and in one case, 11) male Swiss Webster mice (25-30 g) were used. Each animal was weighed and allowed to acclimate for at least one hour in individual, rectangular observation boxes. The tails of mice were immersed for 30 seconds in warm water to dilate tail veins and the animals then received an intravenous injection of either vehicle (saline) or compound (2) (0.01, 0.03, 0.10 and 0.30 mg of free base/kg). Fifteen minutes later, each mouse was given either GNTI dihydrochloride (Tocris) (0.30 mg/kg; 0.25 ml/25 g) or compound 48/80 (Sigma) (50 μg in 0.10 ml saline) subcutaneously behind the neck. The animals were then observed in pairs (occasionally in threes) and the number of hind leg scratching movements directed at the neck was counted for 30 minutes. […]

For experiment [4], the system named is capsaicin-induced ocular pain. In words: Capsaicin-induced ocular pain, palpebral opening in rabbits. It counts as in vivo, albino New Zealand strain rabbits. The note with it: 10-30 min. post capsaicin.
Experiment [5] concerns mechanical hypersensitivity induced by L5/L6 spinal nerve ligation in rats. The experiment is described as follows: Spinal nerve ligation (SNL) model of neuropathic pain. It counts as in vivo, rat. The note with it: intravenous route. As to the method:
The SNL model (Kim and Chung 1992) was used to induce chronic neuropathic pain. The rats were anesthetized with isoflurane, the left L5 transverse process was removed, and the L5 and L6 spinal nerves were tightly ligated with 6-0 silk suture. The wound was then closed with internal sutures and external staples. Fourteen days following SNL, baseline, post-injury and post-treatment values for non-noxious mechanical sensitivity were evaluated using 8 Semmes-Weinstein filaments (Stoelting, Wood Dale, Ill., USA) with varying stiffness (0.4, 0.7, 1.2, 2.0, 3.6, 5.5, 8.5, and 15 g) according to the up-down method (Chaplan et al. 1994). Animals were placed on a perforated metallic platform and allowed to acclimate to their surroundings for a minimum of 30 minutes before testing. The mean and standard error of the mean (SEM) were determined for each paw in each treatment group. Since this stimulus is normally not considered painful, significant injury-induced increases in responsiveness in this test are interpreted as a measure of mechanical allodynia. […] Compound (2) was administered by the intravenous route. FIG. 10 summarizes the results of these experiments.

Experiment [6] concerns pruritus induced by GNTI in mice. The experiment is described as follows: Pruritus model in mice, GNTI-induced scratching. The note with it: inhibition of scratching. Format: in vivo, Swiss Webster mice. As to the method: as §1

For `CC(C)C[C@@H](NC(=O)[C@@H](Cc1ccccc1)NC(=O)[C@H](N)Cc1ccccc1)C(=O)N[C@H](CCCCN)C(=O)N1CCC(N)(C(=O)O)CC1` [Compound (2), D-Phe-D-Phe-D-Leu-D-Lys-[ω(4-aminopiperidine-4-carboxylic acid)]-OH], in experiment [1] (intravenously, 0.01 mg/kg to 0.3 mg/kg), the “dose response in the acetic acid-induced writhing model” value was “linear dose response relationship”. In addition, the “ED50 (mg/kg, iv, 15 min post-dose)” value in experiment [1] (iv, 15 min post-dose) amounted to 0.07 mg/kg. Moreover, the “% MPE (180 min post-ED90)” value in experiment [1] (iv, 180 min post-ED90) came to 77 ± 5% MPE. The “% MPE (240 min post-ED90)” value in experiment [1] (iv, 240 min post-ED90) worked out at 81 ± 4% MPE. Besides, in experiment [1] (iv, 300 min post-ED90), the “% MPE (300 min post-ED90)” value was 84 ± 4% MPE. Moreover, in experiment [2], the “ED50, attenuation of abdominal hypersensitivity (pancreatitis model)” value was 0.03 mg/kg. The “Compound 48/80 Model ED50 (mg/kg, iv, 15 min post-dose)” value in experiment [3] is 0.08 (0.04-0.2) mg/kg. Moreover, the “Mean palpebral opening (% Control)” value in experiment [4] (Table VII, 10 mg/ml, five animals) turned out to be 82.7 % Control; in experiment [4] (Table VIII, 1 mg/ml, ten animals), 60.5 % Control; in experiment [4] (Table VIII, 10 mg/ml, ten animals) it was 56.6 % Control; in experiment [4] (Table VIII, 25 mg/ml, ten animals), 75.5 % Control; in experiment [4] (Table VIII, 50 mg/ml, ten animals), 87.5 % Control. Also, in experiment [5], the “ED50, attenuation of mechanical hypersensitivity (SNL model)” value was 0.38 mg/kg. In addition, the “GNTI Model ED50 (mg/kg, iv, 15 min post-dose)” value in experiment [6] is 0.05 (0.02-0.1) mg/kg.
